This assay deals with T1, URAT1WT (Homo sapiens, UniProt Q96S37).
T1 construct: expressed in transfected cells; host or cells: HEK293 cells (ATCC, CRL-3216), transient transfection with Lipofectamine 3000
T1 sequence (Q96S37 1-553): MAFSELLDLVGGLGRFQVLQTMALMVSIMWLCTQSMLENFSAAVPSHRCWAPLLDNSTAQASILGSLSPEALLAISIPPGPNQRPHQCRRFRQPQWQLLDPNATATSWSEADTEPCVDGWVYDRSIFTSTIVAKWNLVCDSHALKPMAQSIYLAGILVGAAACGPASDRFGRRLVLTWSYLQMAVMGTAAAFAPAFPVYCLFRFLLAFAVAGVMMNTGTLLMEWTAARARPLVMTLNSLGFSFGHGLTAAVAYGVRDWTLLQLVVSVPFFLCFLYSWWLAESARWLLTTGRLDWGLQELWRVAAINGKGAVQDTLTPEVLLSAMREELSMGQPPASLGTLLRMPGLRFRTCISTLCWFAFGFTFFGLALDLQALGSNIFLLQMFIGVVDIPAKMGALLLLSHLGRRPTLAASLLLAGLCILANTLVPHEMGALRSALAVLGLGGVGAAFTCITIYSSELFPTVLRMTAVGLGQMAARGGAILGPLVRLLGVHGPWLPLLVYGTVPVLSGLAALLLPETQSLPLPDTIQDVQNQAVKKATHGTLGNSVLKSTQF
Kind of assay: 14C-urate uptake inhibition in HEK293 cells expressing WT URAT1. The format is cell-based. The protocol:
Data are shown as mean ± SD; n = 3 biological replicates. In a, b, uptake buffer: 20 mM HEPES pH 7.4, 125 mM sodium gluconate, 4.8 mM potassium gluconate, 1.2 mM monobasic potassium phosphate, 1.2 mM magnesium sulfate, 1.3 mM calcium gluconate, and 5.6 mM glucose. c Cryo-EM density maps of URAT1 in the apo and substrate-bound states. […] Putative lipid densities are in light cyan. d Cryo-EM density maps of URAT1 in the drug-bound states. […] Putative lipid densities are in light cyan. e Diagram of URAT1 topology. ECD, extracellular domain. f Structure of URAT1 in the apo state. g Slice view of URAT1 in the apo state, showing the central cavity and opening to the intracellular side.
Human embryonic kidney (HEK) 293 cells (ATCC, CRL-3216) were seeded onto poly(D-lysine)-coated 96-well plates at a density of 0.3 × 10^5 cells per well and cultured at 37 °C until reaching approximately 70%–80% confluence. The cells were transiently transfected with plasmids encoding the URAT1 WT or mutants using Lipofectamine 3000 (Invitrogen, L3000001), following the manufacturer’s protocol. The transfected cells were cultured at 37 °C for 12 h. Following this, 10 mM sodium butyrate was added, and the cells were further incubated at 30 °C for an additional 24 h. […]

One may read the IC50 as the concentration that inhibits the measured activity by half. Read a high IC50 as weaker potency in that assay. For `O=C(c1cc(Cl)c(O)c(Cl)c1)N1CS(=O)(=O)c2ccccc21` [dotinurad], the half-maximal inhibitory concentration (IC50) was 170 nM.

(Values after article PMC11528023, “Transport mechanism and structural pharmacology of human urate transporter URAT1” (Cell Research, 2024).)
